Measured values published in patent US11000033B2, “Ketone or oxime compound, and herbicide” (NISSAN CHEMICAL CORPORATION, priority 2014, dated 2021).

Experiments:
Type in all cases: in vivo
[1] = system: rice; experiment: Test Example 4: effect on crop by soil treatment (symbol b); conditions: application herbicide amount 320 g/ha
Method in brief: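 The test used sterilized diluvial soil. Seed was set down in spots and overlaid with about 1.5 cm of soil before growth in a greenhouse kept at 25° C. to 30° C.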

[2] = system: beet; experiment: Test Example 5: effect on crop by foliage application, plastic box (symbol f); conditions: 320 g/ha, 3 weeks after application
Method in brief: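 A greenhouse held between 25° C. and 30° C. was used to grow plants sown spot-wise, beneath ~1.5 cm of soil, in boxes of sterilized diluvial soil.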

[3] = system: Setaria viridis; experiment: Test Example 5: herbicidal effect by foliage application, plastic box (symbol G); conditions: 320 g/ha, 3 weeks after application
Method in brief: (§1)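 Visual herbicidal score, taken three weeks post-application, of seedlings sprayed on the foliage with water-diluted emulsion at a predetermined amount; plants were 14 days old, greenhouse-raised at 25° C. to 30° C.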

[4] = system: Digitaria ciliaris; experiment: Test Example 5: herbicidal effect by foliage application, plastic box (symbol F); conditions: 320 g/ha, 3 weeks after application
Method in brief: as §1

[5] = system: Monochoria vaginalis; experiment: Test Example 2: herbicidal activity, application during weed generation in submerged conditions (symbol C); conditions: Table 23; application herbicide amount 320 g/ha; grade 0-5 by criteria of Test Example 1
Method in brief: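 Each pot contained alluvial soil under 4 cm of water with seeds of all three weeds sown together. Following growth at 25° C. to 30° C. to the one- to two-leaf stage, the floodwater received diluted emulsion at a predetermined amount; visual assessment followed at 3 weeks.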

[6] = system: Alopecurus myosuroides; experiment: Test Example 4: herbicidal effect by soil treatment (symbol J); conditions: application herbicide amount 320 g/ha
Method in brief: (§2)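 Seeds were sown in sterilized diluvial soil, covered with about 1.5 cm of soil, and the soil surface was sprayed with a water-diluted emulsion of the compound at a predetermined rate. Plants grew in a greenhouse at 25° C. to 30° C.; effects were scored visually 3 weeks after application.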

[7] = system: Leptochloa chinensis; experiment: Test Example 3: herbicidal effect by foliage application, Wagner pot (symbol D); conditions: application herbicide amount 320 g/ha
Method in brief: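 Seeds sown in alluvial soil kept under 0.1–0.5 cm water, greenhouse 25–30 °C; 14 d growth. Leaves treated by small sprayer with water-diluted emulsion at a predetermined rate. Effect graded by set scale, 3 weeks.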

[8] = system: transplanted rice plant; experiment: Test Example 1: effect on crop, application before weed generation in submerged conditions (symbol a); conditions: application herbicide amount 320 g/ha
Method in brief: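 Alluvial soil pots flooded to 4 cm water, sown with Echinochloa oryzacola, Scirpus juncoides and Monochoria vaginalis, then transplanted with 2.5 leaf stage rice seedlings; pre-emergence application. Greenhouse 25° C. to 30° C.; scored 0–5 by herbicidal ratio 3 weeks after application.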

[9] = system: Chenopodium album; experiment: Test Example 4: herbicidal effect by soil treatment (symbol O); conditions: application herbicide amount 320 g/ha
Method in brief: as §2

[10] = system: Avena fatua; experiment: Test Example 4: herbicidal effect by soil treatment (symbol I); conditions: application herbicide amount 320 g/ha
Method in brief: as §2

Row | Structure (SMILES) | b: directly sowed rice plant, effect on crop grade [1] | f: beet, effect on crop grade [2] | G: Setaria viridis, herbicidal effect grade [3] | F: Digitaria ciliaris, herbicidal effect grade [4] | Herbicidal effect grade, C: Monochoria vaginalis [5] | J: Alopecurus myosuroides, herbicidal effect grade [6] | herbicidal effect on D (Leptochloa chinensis), grade 0-5 [7] | Effect grade on crop, a: transplanted rice plant [8] | O: Chenopodium album, herbicidal effect grade [9] | I: Avena fatua, herbicidal effect grade [10]
1 | CCOC(=O)C(C(=O)Cc1ccccc1)C1CC(O)=C(c2c(C)cc(C)cc2C)C1=O (centres unmarked) [2-011] | 0 (Herbicidal ratio of 5% or lower (almost no effect)) | 0 (Herbicidal ratio of 5% or lower (almost no effect)) | 0 (Herbicidal ratio of 5% or lower (almost no effect)) | 0 (Herbicidal ratio of 5% or lower (almost no effect)) | 0 (Herbicidal ratio of 5% or lower (almost no effect)) | 0 (Herbicidal ratio of 5% or lower (almost no effect)) | 0 (Herbicidal ratio of 5% or lower (almost no effect)) | 0 (Herbicidal ratio of 5% or lower (almost no effect)) | 0 (Herbicidal ratio of 5% or lower (almost no effect)) | 0 (Herbicidal ratio of 5% or lower (almost no effect))
2 | CCOC(=O)C(CC)(C(C)=O)C1CC(O)=C(c2c(C)cc(C)cc2C)C1=O (centres unmarked) [2-012] | 0 (Herbicidal ratio of 5% or lower (almost no effect)) | 0 (Herbicidal ratio of 5% or lower (almost no effect)) | 0 (Herbicidal ratio of 5% or lower (almost no effect)) | 0 (Herbicidal ratio of 5% or lower (almost no effect)) | 0 (Herbicidal ratio of 5% or lower (almost no effect)) | 0 (Herbicidal ratio of 5% or lower (almost no effect)) | 0 (Herbicidal ratio of 5% or lower (almost no effect)) | 0 (Herbicidal ratio of 5% or lower (almost no effect)) | 0 (Herbicidal ratio of 5% or lower (almost no effect)) | 0 (Herbicidal ratio of 5% or lower (almost no effect))
3 | COC(=O)C(C(=O)C1CC1)C1CC(O)=C(c2c(C)cc(C)cc2C)C1=O (centres unmarked) [2-014] | 5 (Herbicidal ratio of 90% or more (almost completely withered)) | 0 (Herbicidal ratio of 5% or lower (almost no effect)) | 5 (Herbicidal ratio of 90% or more (almost completely withered)) | 3 (Herbicidal ratio of 40% or higher and lower than 70%) | 0 (Herbicidal ratio of 5% or lower (almost no effect)) | 2 (Herbicidal ratio of 20% or higher and lower than 40%) | 4 (Herbicidal ratio of 70% or higher and lower than 90%) | 1 (Herbicidal ratio of 5% or higher and lower than 20%) | 0 (Herbicidal ratio of 5% or lower (almost no effect)) | 0 (Herbicidal ratio of 5% or lower (almost no effect))
4 | Cc1cc(C)c(C2=C(O)CC(CC(=O)Cc3ccccc3)C2=O)c(C)c1 (centres unmarked) [2-015] | 4 (Herbicidal ratio of 70% or higher and lower than 90%) | 0 (Herbicidal ratio of 5% or lower (almost no effect)) | 5 (Herbicidal ratio of 90% or more (almost completely withered)) | 5 (Herbicidal ratio of 90% or more (almost completely withered)) | 0 (Herbicidal ratio of 5% or lower (almost no effect)) | 2 (Herbicidal ratio of 20% or higher and lower than 40%) | 0 (Herbicidal ratio of 5% or lower (almost no effect)) | 0 (Herbicidal ratio of 5% or lower (almost no effect)) | 0 (Herbicidal ratio of 5% or lower (almost no effect)) | 0 (Herbicidal ratio of 5% or lower (almost no effect))
5 | CC(=O)CC1CC(OC(=O)C(C)(C)C)=C(c2c(C)cc(C)cc2C)C1=O (centres unmarked) [2-018] | 5 (Herbicidal ratio of 90% or more (almost completely withered)) | 0 (Herbicidal ratio of 5% or lower (almost no effect)) | 1 (Herbicidal ratio of 5% or higher and lower than 20%) | 1 (Herbicidal ratio of 5% or higher and lower than 20%) | 0 (Herbicidal ratio of 5% or lower (almost no effect)) | 3 (Herbicidal ratio of 40% or higher and lower than 70%) | 5 (Herbicidal ratio of 90% or more (almost completely withered)) | 4 (Herbicidal ratio of 70% or higher and lower than 90%) | 0 (Herbicidal ratio of 5% or lower (almost no effect)) | 0 (Herbicidal ratio of 5% or lower (almost no effect))
6 | CCCC(=O)CC1CC(O)=C(c2c(C)cc(C)cc2C)C1=O (centres unmarked) [2-021] | 5 (Herbicidal ratio of 90% or more (almost completely withered)) | 0 (Herbicidal ratio of 5% or lower (almost no effect)) | 4 (Herbicidal ratio of 70% or higher and lower than 90%) | 4 (Herbicidal ratio of 70% or higher and lower than 90%) | 1 (Herbicidal ratio of 5% or higher and lower than 20%) | 5 (Herbicidal ratio of 90% or more (almost completely withered)) | 3 (Herbicidal ratio of 40% or higher and lower than 70%) | 5 (Herbicidal ratio of 90% or more (almost completely withered)) | 0 (Herbicidal ratio of 5% or lower (almost no effect)) | 0 (Herbicidal ratio of 5% or lower (almost no effect))
7 | Cc1cc(C)c(C2=C(O)CC(CC(=O)C(C)(C)C)C2=O)c(C)c1 (centres unmarked) [2-022] | 4 (Herbicidal ratio of 70% or higher and lower than 90%) | 0 (Herbicidal ratio of 5% or lower (almost no effect)) | 0 (Herbicidal ratio of 5% or lower (almost no effect)) | 0 (Herbicidal ratio of 5% or lower (almost no effect)) | 0 (Herbicidal ratio of 5% or lower (almost no effect)) | 0 (Herbicidal ratio of 5% or lower (almost no effect)) | 4 (Herbicidal ratio of 70% or higher and lower than 90%) | 3 (Herbicidal ratio of 40% or higher and lower than 70%) | 0 (Herbicidal ratio of 5% or lower (almost no effect)) | 0 (Herbicidal ratio of 5% or lower (almost no effect))
8 | C=CC(=O)CC1CC(O)=C(c2c(C)cc(C)cc2C)C1=O (centres unmarked) [2-031] | 5 (Herbicidal ratio of 90% or more (almost completely withered)) | 0 (Herbicidal ratio of 5% or lower (almost no effect)) | 5 (Herbicidal ratio of 90% or more (almost completely withered)) | 5 (Herbicidal ratio of 90% or more (almost completely withered)) | 0 (Herbicidal ratio of 5% or lower (almost no effect)) | 3 (Herbicidal ratio of 40% or higher and lower than 70%) | 5 (Herbicidal ratio of 90% or more (almost completely withered)) | 5 (Herbicidal ratio of 90% or more (almost completely withered)) | 0 (Herbicidal ratio of 5% or lower (almost no effect)) | 0 (Herbicidal ratio of 5% or lower (almost no effect))
